Test results published in patent US20170101438A1, “COSMETIC OR PHARMACEUTICAL METHODS FOR THE TREATMENT AND/OR CARE OF THE SKIN AND/OR HAIR USING TRIPEPTIDES CAPABLE OF STIMULATING CYCLIC ADENOSINE MONOPHOSPHATE SYNTHESIS” (Lipotec, S.A., priority 2009, published 2017).

How the values were obtained:
[1] = tested on: human G361 melanocyte cell line; experiment: cAMP synthesis stimulation assay (competitive ELISA); format: cell-based; conditions: G361 cells, normalized to average basal cAMP values
Protocol: cAMP synthesis stimulation was assessed in the human G361 melanocyte cell line in the presence of the peptides of the invention. The cells were seeded (10^6 cells/plate 25 cm^2) and incubated for 24 hours in McCoy's complete medium, after which the peptides were added to 10 μM and were incubated for another 24 hours. 40 μM forskolin was used as a positive control. The cells were centrifuged and the supernatants were collected, and the cAMP levels were determined by carrying out a competitive ELISA assay following the protocols of the commercial kit (Cayman, Ref 0.581001)

[2] = tested on: human G361 melanocyte cell line; experiment: Melanogenesis stimulation (melanin extracted, absorbance at 470 nm); format: cell-based; conditions: 4 days, G361 cells, normalized to number of cells
Protocol: A human G361 melanocyte cell line was incubated for 4 days on a 12-well plate in presence of the peptide at various concentrations, after which the cells were trypsinized, the melanin was extracted and was quantified by measuring the absorbance at 470 nm in a spectrophotometer. The values obtained were normalized with regards to the number of cells. The concentration of melanin was determined in pg/cell using a standard regression analysis obtained with synthetic melanin at known concentrations.

Molecule | cAMP increase ([1]; positive control 40 μM) [%] | cAMP increase ([1]; peptide 10 μM, 24 hours) [%] | Melanin synthesis stimulation ([2]; 10 μM) [%] | Melanin synthesis stimulation ([2]; 50 μM) [%] | Melanin synthesis stimulation ([2]; 100 μM) [%]
C=C[C@@]1(C)CC(=O)[C@]2(O)[C@@]3(C)[C@@H](O)CCC(C)(C)[C@@H]3[C@H](O)[C@H](OC(C)=O)[C@@]2(C)O1 [Forskolin, reference compound] | 117 | – | – | – | –
Palm-L-Tyr-L-Tyr-L-Met-NH2 | – | 57 | 64 | 79 | 138
